Measurements as given in patent US10294202B2, “Pyrrolidinones as herbicides” (FMC Corporation, priority 2013, dated 2019).

Tests used:
[1] = tested on: barnyardgrass; assay: Test A pre-/postemergence herbicide test; format: in vivo, Echinochloa crus-galli; settings: for Barnyardgrass plant response rating: Preemergence, visual rating on 0 to 100 scale (0 no effect, 100 complete control)
In short: (§1)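 Directed soil spray to seeded pots (preemergence) or spray onto one- to two-leaf seedlings 2–10 cm tall (postemergence); loam/sand substrate throughout. Evaluated visually after about 10 days against untreated plants, 0 = no effect, 100 = complete control.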

[2] = tested on: crabgrass, large; assay: Test A pre-/postemergence herbicide test; format: in vivo, Digitaria sanguinalis; settings: for Crabgrass, Large plant response rating: Preemergence, visual rating on 0 to 100 scale (0 no effect, 100 complete control)
In short: as §1

[3] = tested on: giant foxtail; assay: Test A pre-/postemergence herbicide test; format: in vivo, Setaria faberii; settings: for Foxtail, Giant plant response rating: Preemergence, visual rating on 0 to 100 scale (0 no effect, 100 complete control)
In short: as §1

[4] = tested on: morningglory; assay: Test A pre-/postemergence herbicide test; format: in vivo, Ipomoea spp.; settings: for Morningglory plant response rating: Preemergence, visual rating on 0 to 100 scale (0 no effect, 100 complete control)
In short: as §1

[5] = tested on: pigweed; assay: Test A pre-/postemergence herbicide test; format: in vivo, Amaranthus retroflexus; settings: for Pigweed plant response rating: Preemergence, visual rating on 0 to 100 scale (0 no effect, 100 complete control)
In short: as §1

[6] = tested on: velvetleaf; assay: Test A pre-/postemergence herbicide test; format: in vivo, Abutilon theophrasti; settings: for Velvetleaf plant response rating: Preemergence, visual rating on 0 to 100 scale (0 no effect, 100 complete control)
In short: as §1

[7] = tested on: wheat; assay: Test A pre-/postemergence herbicide test; format: in vivo, Triticum aestivum; settings: for Wheat plant response rating: Preemergence, visual rating on 0 to 100 scale (0 no effect, 100 complete control)
In short: as §1

[8] = tested on: corn; assay: Test A pre-/postemergence herbicide test; format: in vivo, Zea mays; settings: for Corn plant response rating: Preemergence, visual rating on 0 to 100 scale (0 no effect, 100 complete control)
In short: as §1

[9] = tested on: rice; assay: Test B flooded paddy test; format: in vivo, Oryza sativa; settings: 250 g ai/ha, Flood; scale of 0 to 100 where 0 is no effect and 100 is complete control
In short: (§2)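 Paddy-water application at a 3 cm flood, young plants having two leaves. Water level maintained; greenhouse, 13–15 days; visual 0–100 control rating.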

[10] = tested on: sedge, umbrella; assay: Test B flooded paddy test; format: in vivo, Cyperus difformis; settings: 250 g ai/ha, Flood; scale of 0 to 100 where 0 is no effect and 100 is complete control
In short: as §2

[11] = tested on: ducksalad; assay: Test B flooded paddy test; format: in vivo, Heteranthera limosa; settings: 250 g ai/ha, Flood; scale of 0 to 100 where 0 is no effect and 100 is complete control
In short: as §2

[12] = tested on: barnyardgrass; assay: Test B flooded paddy test; format: in vivo, Echinochloa crus-galli; settings: 250 g ai/ha, Flood; scale of 0 to 100 where 0 is no effect and 100 is complete control
In short: as §2

[13] = Postemergence, 125 g ai/ha, 0 to 100 scale, 0 no effect, 100 complete control
[14] = Postemergence, 500 g ai/ha, 0 to 100 scale (0 no effect, 100 complete control)
[15] = preemergence, 500 g ai/ha, 0 to 100 scale (0 no effect, 100 complete control)
[16] = preemergence, 500 g ai/ha, 0 to 100 scale

| Structure (SMILES) | Plant response rating, Barnyardgrass [1, 13] | Plant response rating, Barnyardgrass [1, 14] | Barnyardgrass plant response rating ([1]; 125 g ai/ha) | Plant response rating, Barnyardgrass [1, 15] | Plant response rating, Crabgrass, Large [2, 13] | Plant response rating, Crabgrass, Large [2, 14] | Crabgrass, Large plant response rating ([2]; 125 g ai/ha) | Plant response rating, Crabgrass, Large [2, 16] | Plant response rating, Foxtail, Giant [3, 13] | Plant response rating, Foxtail, Giant [3, 14] | Foxtail, Giant plant response rating ([3]; 125 g ai/ha) | Plant response rating, Foxtail, Giant [3, 16] | Plant response rating, Morningglory [4, 13] | Plant response rating, Morningglory [4, 14] | Morningglory plant response rating ([4]; 125 g ai/ha) | Plant response rating, Morningglory [4, 16] | Plant response rating, Pigweed [5, 13] | Plant response rating, Pigweed [5, 14] | Pigweed plant response rating ([5]; 125 g ai/ha) | Plant response rating, Pigweed [5, 16] | other results |
| --- | --- | --- | --- | --- | --- | --- | --- | --- | --- | --- | --- | --- | --- | --- | --- | --- | --- | --- | --- | --- | --- |
| O=C1NCC(c2ccc(F)c(F)c2)C1C(=O)Nc1cccc2c1OC(F)(F)O2 (stereo not drawn) [Compound 57] | 70 | 80 | 40 | 80 | 50 | 70 | 80 | 90 | 50 | 60 | 60 | 80 | 0 | 0 | 0 | 0 | 0 | 0 | 0 | 0 | Plant response rating, Velvetleaf [6, 13]: 0; Plant response rating, Velvetleaf [6, 14]: 0; Velvetleaf plant response rating ([6]; 125 g ai/ha): 0; Plant response rating, Velvetleaf [6, 16]: 0; Plant response rating, Wheat [7, 13]: 0; Plant response rating, Wheat [7, 14]: 0; Wheat plant response rating ([7]; 125 g ai/ha): 0; Plant response rating, Wheat [7, 16]: 0; Plant response rating, Corn [8, 13]: 0; Plant response rating, Corn [8, 14]: 0; Corn plant response rating ([8]; 125 g ai/ha): 0; Plant response rating, Corn [8, 16]: 0; Plant response rating, Rice [9]: 0; Plant response rating, Sedge, Umbrella [10]: 0; Plant response rating, Ducksalad [11]: 0; Plant response rating, Barnyardgrass [12]: 0 |
| COc1cccc(NC(=O)C2C(=O)NCC2c2ccc(F)c(F)c2)n1 (stereo not drawn) [Compound 58] | 0 | 0 | 0 | 20 | 40 | 80 | 70 | 90 | 20 | 70 | 20 | 80 | 0 | 0 | 0 | 0 | 0 | 0 | 0 | 0 | Plant response rating, Velvetleaf [6, 13]: 0; Plant response rating, Velvetleaf [6, 14]: 0; Velvetleaf plant response rating ([6]; 125 g ai/ha): 0; Plant response rating, Velvetleaf [6, 16]: 0; Plant response rating, Wheat [7, 13]: 0; Plant response rating, Wheat [7, 14]: 0; Wheat plant response rating ([7]; 125 g ai/ha): 0; Plant response rating, Wheat [7, 16]: 0; Plant response rating, Corn [8, 13]: 0; Plant response rating, Corn [8, 14]: 0; Corn plant response rating ([8]; 125 g ai/ha): 0; Plant response rating, Corn [8, 16]: 0; Plant response rating, Rice [9]: 0; Plant response rating, Sedge, Umbrella [10]: 0; Plant response rating, Ducksalad [11]: 0; Plant response rating, Barnyardgrass [12]: 0 |
| O=C1NCC(c2ccccc2)C1C(=O)Nc1cccc(F)c1F (stereo not drawn) [Compound 65] | 20 | 70 | 40 | 90 | 90 | 90 | 90 | 90 | 50 | 90 | 80 | 90 | 0 | 20 | 0 | 0 | 0 | 0 | 0 | 0 | Plant response rating, Velvetleaf [6, 13]: 0; Plant response rating, Velvetleaf [6, 14]: 30; Velvetleaf plant response rating ([6]; 125 g ai/ha): 0; Plant response rating, Velvetleaf [6, 16]: 0; Plant response rating, Wheat [7, 13]: 0; Plant response rating, Wheat [7, 14]: 20; Wheat plant response rating ([7]; 125 g ai/ha): 0; Plant response rating, Wheat [7, 16]: 0; Plant response rating, Corn [8, 13]: 0; Plant response rating, Corn [8, 14]: 20; Corn plant response rating ([8]; 125 g ai/ha): 0; Plant response rating, Corn [8, 16]: 0; Plant response rating, Rice [9]: 0; Plant response rating, Sedge, Umbrella [10]: 40; Plant response rating, Ducksalad [11]: 80; Plant response rating, Barnyardgrass [12]: 0 |
